Data on 4 molecules can be found in US20260242402A1, “PRODRUGS OF STAT3 INHIBITORS” (Tvardi Operating Company, Inc., priority 2022, published 2026).

Molecules are shown by their SMILES. Converted amounts (≈) assume the structure as drawn. Structures can show the parent of a compound that is named as a salt. Where two headings read alike, the source gives them in different places.

Data set [1] in a line: in vitro. Particulars: human, plasma.
A short description of data set [2]: physchem. Particulars: buffer, pH 7.4.
The conditions of data set [3]: male, SD, rat, in vivo, po.
For data set [4] the following is noted: male, cynomolgus monkey, in vivo, po.
The nature of data set [5]: physchem. Particulars: thermodynamic from solid.
Assay in data set [6]: not given
This is another data set of the same source.

Data set [7] can be described thus: Solubility of TTI-101 as described in the text. The data set is classed as physicochemical. The note with it: aqueous solutions.
The nature of data set [8]: in vivo. Particulars: rat.
Data set [9] in a line: Pharmacokinetics in monkeys (TTI-101 in plasma by LC-MS/MS). The note with it: male, cynomolgus monkey, iv, 26 mg/kg.
Where [10] appears, read: pH 2, aqueous buffer, Solubility (pH = 2.0).

Turning to `CNCCCN(C)C(=O)Oc1c(-c2c(O)ccc3ccccc23)cc(NS(=O)(=O)c2ccc(OC)cc2)c2ccccc12` [Compound 4, 2-hydroxy-4′-((4-methoxyphenyl)sulfonamido)-[1,2′-binaphthalen]-1′-yl methyl(3-(methylamino)propyl)carbamate hydrochloride], the “Aqueous Stability (pH = 2.0)” value (phosphate buffer pH 2.0, 37° C., up to 1440 minutes) is “Stable”. In addition, for the setting “phosphate buffer pH 3.5, 37° C., up to 1440 minutes”, the “Aqueous Stability (pH = 3.5)” value is recorded as “Stable”. In addition, where the note is “phosphate buffer pH 7.4, 37° C., up to 1440 minutes”, the “Aqueous Stability (pH = 7.4) (in words)” value is recorded as “Unstable;”. In addition, the half-life (in general, the time in which the quantity being followed falls by half) at 2 µM is 4.3 min in data set [1] and 1 h in [2].

In the case of `COc1ccc(S(=O)(=O)Nc2cc(-c3c(O)ccc4ccccc34)c(OP(=O)(O)O)c3ccccc23)cc1` [Compound 9, 2-hydroxy-4′-((4-methoxyphenyl)sulfonamido)-[1,2′-binaphthalen]-1′-yl dihydrogen phosphate], the “Aqueous Stability (pH = 2.0)” value (pH 2) is listed as “Stable”. Moreover, the “Aqueous Stability (pH = 3.5)” value (pH 3.5) is reported as “Stable”. For the setting “pH 7.4”, the “Aqueous Stability (pH = 7.4) (in words)” value is “Stable”. For the same molecule, the “F % (bioavailability, calculated on dose levels)” value in data set [3] is recorded as 58.5%; in [4], 81.3%. Further, the T1/2 is recorded as 2.0 ± 0.4 h in data set [3] and 6.7 ± 1.4 h in data set [4]. The values for the Tmax in [3] and in data set [4] were 1.8 ± 1.7 h and 1.7 ± 0.6 h, respectively. The values for the AUClast in data set [3] (22.4 mg/kg) and in [4] (24.3 mg/kg) were 37775 ± 14217 ng·h/mL and 75704 ± 14050 ng·h/mL, respectively. Further, the solubility (usually how much of the substance goes into solution per volume) is 1530 µg/mL in [5] (setting [10]) and 6160 µg/mL in [5] (pH 7.4, aqueous buffer, Solubility (pH = 7.4)).

As for `COc1ccc(S(=O)(=O)Nc2cc3c(c4ccccc24)OP(=O)(O)Oc2ccc4ccccc4c2-3)cc1` [Compound 9A, N-((6)-6-hydroxy-6-oxidodinaphtho[1,2-d:1′,2′-f][1,3,2]dioxaphosphepin-15-yl)-4-methoxybenzenesulfonamide], the “Solubility (pH = 7.4)” value in data set [6] is listed as 37, 12 ug/mL. Also, the “Aqueous Stability (pH = 2.0)” value (pH 2) is “Stable”. Also, where the note is “pH 3.5”, the “Aqueous Stability (pH = 3.5)” value is “Stable”. Further, the “Aqueous Stability (pH = 7.4) (in words)” value (pH 7.4) is “Stable”. Besides, in [4], the “F % (bioavailability, calculated on dose levels)” value is 6.7% and the Tmax – broadly, the time from dosing to the highest level – worked out at 8.0 ± 0 h. The AUClast in [4] (53.5 mg/kg) was 5203 + 1048 ng*h/mL. Also, in [5] (setting [10]), the concentration in solution (solubility) came to 56 µg/mL (≈ 105 µM).

`COc1ccc(S(=O)(=O)Nc2cc(-c3c(O)ccc4ccccc34)c(O)c3ccccc23)cc1` [TTI-101, N-(1′,2-dihydroxy-[1,2′-binaphthalen]-4′-yl)-4-methoxybenzenesulfonamide]: the “Solubility (in words)” value in data set [7] is reported as “insoluble in aqueous solutions”. Moreover, in data set [8] (male, SD, iv, 21.5 mg/kg), the AUC(0-t) (as a rule, exposure summed from dosing to a finite time, without extrapolation to infinity) was found to be 72400 ± 15100 ng·h/mL and the half-life was 2.8 ± 0.6 h. For the same molecule, in data set [8] (po), the bioavailability – broadly, the share of a dose that reaches the circulation, judged against a reference dose that is usually intravenous – turned out to be 40.4%. In data set [9], this molecule had an AUC(0-t) of 116000 ± 7170 ng·h/mL and a half-life of 2.4 ± 0.1 h.
